Measurements reported in the Kinase Knowledgebase extract (Sharma et al. 2016).

Columns and labels:
[1] = biological target: PIK3CB (Human) (UniProt P42338); assay: Assessment of PIK3CB Kinase Activity
[2] = biological target: PIK3CD (Human) (UniProt O00329); assay: Assessment of PIK3CD Kinase Activity
[3] = biological target: PIK3CG (human) (UniProt P48736); assay: Assessment of PIK3CG Kinase Activity
[4] = biological target: PIK3CA (human) (UniProt P42336); assay: Assessment of PIK3CA Kinase Activity
Chain of PIK3CA (human) (P42336 whole entry, looked up): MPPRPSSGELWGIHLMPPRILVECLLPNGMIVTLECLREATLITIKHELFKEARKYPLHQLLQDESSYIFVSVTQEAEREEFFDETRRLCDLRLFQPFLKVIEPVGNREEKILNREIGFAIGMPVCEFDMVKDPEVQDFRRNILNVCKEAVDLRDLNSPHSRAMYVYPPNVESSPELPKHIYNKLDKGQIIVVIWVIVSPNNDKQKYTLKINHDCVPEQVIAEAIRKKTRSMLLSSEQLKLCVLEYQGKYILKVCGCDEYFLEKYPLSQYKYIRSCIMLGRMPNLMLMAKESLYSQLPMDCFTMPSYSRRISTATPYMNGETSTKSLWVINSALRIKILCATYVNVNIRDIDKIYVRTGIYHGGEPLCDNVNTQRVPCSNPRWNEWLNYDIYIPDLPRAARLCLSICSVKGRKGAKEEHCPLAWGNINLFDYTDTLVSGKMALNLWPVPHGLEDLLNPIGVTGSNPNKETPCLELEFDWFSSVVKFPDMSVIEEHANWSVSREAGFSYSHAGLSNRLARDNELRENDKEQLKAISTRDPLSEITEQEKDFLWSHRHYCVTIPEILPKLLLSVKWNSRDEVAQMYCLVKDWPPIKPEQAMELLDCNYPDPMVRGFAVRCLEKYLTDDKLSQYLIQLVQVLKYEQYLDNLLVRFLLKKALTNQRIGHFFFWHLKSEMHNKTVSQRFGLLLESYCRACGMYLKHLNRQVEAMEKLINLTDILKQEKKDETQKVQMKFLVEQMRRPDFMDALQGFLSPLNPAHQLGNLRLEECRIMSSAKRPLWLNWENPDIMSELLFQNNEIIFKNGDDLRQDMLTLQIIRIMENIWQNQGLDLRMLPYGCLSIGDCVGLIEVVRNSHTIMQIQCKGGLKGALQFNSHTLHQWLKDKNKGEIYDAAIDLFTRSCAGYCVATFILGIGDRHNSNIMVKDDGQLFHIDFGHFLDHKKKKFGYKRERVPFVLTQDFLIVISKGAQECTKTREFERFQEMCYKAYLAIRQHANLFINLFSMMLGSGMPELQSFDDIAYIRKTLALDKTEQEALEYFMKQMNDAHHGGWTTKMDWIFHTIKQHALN

Chain of PIK3CD (Human) (O00329 whole entry, looked up): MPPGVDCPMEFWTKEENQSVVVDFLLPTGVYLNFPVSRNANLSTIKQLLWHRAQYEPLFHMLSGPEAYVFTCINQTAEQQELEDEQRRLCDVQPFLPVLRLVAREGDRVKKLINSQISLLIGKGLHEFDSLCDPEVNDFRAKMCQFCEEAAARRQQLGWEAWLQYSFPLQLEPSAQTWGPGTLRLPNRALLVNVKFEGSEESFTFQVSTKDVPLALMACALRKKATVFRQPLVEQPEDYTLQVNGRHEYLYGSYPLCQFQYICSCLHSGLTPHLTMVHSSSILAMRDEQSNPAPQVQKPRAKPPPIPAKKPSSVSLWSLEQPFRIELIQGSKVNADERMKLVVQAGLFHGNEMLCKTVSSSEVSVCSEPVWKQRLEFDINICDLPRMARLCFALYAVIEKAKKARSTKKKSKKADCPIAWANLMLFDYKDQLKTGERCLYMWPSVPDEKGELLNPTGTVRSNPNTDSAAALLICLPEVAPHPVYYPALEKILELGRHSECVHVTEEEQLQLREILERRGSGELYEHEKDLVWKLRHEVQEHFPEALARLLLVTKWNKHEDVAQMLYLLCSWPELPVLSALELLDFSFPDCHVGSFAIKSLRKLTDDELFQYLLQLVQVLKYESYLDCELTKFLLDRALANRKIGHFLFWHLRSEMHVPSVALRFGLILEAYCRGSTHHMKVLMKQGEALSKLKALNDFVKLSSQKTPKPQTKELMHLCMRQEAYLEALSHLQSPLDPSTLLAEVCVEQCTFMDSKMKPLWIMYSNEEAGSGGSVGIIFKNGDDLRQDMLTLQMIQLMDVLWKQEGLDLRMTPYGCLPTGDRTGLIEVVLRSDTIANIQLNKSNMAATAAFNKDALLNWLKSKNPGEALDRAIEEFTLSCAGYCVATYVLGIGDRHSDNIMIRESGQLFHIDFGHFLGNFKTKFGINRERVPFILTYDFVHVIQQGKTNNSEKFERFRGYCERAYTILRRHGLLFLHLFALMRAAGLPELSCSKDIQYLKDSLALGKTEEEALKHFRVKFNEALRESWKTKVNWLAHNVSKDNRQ
Chain of PIK3CG (human) (P48736 whole entry, looked up): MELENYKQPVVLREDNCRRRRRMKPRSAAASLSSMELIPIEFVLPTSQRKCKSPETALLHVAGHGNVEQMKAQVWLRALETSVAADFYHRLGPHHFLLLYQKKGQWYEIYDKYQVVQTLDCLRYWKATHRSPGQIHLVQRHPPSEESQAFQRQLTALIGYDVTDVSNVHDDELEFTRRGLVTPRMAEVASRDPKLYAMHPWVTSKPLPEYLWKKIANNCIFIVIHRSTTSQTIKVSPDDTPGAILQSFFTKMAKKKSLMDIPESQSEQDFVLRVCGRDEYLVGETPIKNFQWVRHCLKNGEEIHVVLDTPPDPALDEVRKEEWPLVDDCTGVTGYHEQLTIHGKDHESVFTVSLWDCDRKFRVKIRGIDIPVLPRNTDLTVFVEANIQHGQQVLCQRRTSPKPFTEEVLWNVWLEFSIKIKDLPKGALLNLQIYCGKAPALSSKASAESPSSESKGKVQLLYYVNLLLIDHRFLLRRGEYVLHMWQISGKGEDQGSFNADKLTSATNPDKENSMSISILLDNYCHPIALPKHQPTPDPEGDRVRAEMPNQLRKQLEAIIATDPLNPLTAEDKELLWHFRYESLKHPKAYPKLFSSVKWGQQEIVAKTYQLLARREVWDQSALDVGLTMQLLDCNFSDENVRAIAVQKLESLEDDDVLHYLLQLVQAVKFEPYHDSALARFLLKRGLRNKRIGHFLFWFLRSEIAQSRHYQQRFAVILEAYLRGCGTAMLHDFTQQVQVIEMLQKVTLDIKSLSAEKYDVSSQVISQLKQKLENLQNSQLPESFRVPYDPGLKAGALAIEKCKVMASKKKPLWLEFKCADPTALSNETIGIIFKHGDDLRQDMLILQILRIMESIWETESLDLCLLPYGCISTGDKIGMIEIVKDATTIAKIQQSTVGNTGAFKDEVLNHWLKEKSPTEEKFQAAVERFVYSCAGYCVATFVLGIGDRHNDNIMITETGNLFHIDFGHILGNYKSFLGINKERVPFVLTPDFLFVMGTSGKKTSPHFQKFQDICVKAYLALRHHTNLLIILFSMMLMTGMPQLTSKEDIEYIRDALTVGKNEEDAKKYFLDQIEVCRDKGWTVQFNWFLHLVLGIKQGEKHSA
Chain of PIK3CB (Human) (P42338 whole entry, looked up): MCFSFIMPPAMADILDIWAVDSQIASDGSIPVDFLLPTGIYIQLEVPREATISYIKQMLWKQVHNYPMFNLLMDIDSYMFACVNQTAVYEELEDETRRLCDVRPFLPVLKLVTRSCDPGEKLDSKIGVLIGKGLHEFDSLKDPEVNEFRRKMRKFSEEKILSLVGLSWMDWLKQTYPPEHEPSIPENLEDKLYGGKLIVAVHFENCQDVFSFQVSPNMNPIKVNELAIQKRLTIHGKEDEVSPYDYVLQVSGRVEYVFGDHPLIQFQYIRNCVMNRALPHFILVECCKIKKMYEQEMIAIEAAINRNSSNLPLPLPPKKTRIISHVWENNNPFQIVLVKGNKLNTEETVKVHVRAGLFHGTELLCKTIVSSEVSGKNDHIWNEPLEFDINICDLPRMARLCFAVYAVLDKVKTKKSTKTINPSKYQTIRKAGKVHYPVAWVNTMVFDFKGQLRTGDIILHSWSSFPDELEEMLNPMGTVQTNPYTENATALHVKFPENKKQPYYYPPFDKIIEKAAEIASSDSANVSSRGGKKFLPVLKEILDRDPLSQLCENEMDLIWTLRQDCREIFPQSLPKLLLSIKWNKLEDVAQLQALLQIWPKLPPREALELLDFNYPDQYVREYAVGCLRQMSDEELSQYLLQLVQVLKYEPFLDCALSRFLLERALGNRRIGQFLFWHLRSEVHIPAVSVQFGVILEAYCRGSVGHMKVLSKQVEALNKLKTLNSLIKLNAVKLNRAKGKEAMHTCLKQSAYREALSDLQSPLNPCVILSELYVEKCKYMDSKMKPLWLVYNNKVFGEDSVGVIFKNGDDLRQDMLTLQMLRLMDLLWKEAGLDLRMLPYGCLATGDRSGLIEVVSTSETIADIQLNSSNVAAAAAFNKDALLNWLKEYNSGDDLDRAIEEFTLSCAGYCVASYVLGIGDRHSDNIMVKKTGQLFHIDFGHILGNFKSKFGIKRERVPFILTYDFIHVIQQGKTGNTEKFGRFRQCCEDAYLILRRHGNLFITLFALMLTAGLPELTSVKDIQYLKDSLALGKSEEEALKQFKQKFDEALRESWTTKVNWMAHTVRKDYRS

SMILES | IC50 [1] [µM] | IC50 [2] [µM] | IC50 [3] [µM] | IC50 [4] [µM]
C[C@H](Nc1nc(N)nc2cccnc12)c1cc2cccc(-c3cnc4[nH]ccc4c3)c2c(=O)n1-c1ccccc1 | 0.1 to 1 | < 0.1 | < 0.1 | 0.1 to 1
C[C@H](NCc1cccnc1N)c1cc2cccc(Cl)c2c(=O)n1-c1ccccc1 | > 10 | > 10 | > 10 | > 10
C[C@H](Nc1cc(Cl)ncc1C#N)c1cc2cccc(Cl)c2c(=O)n1-c1ccccc1 | > 10 | – | > 10 | > 10
C[C@H](Nc1ncnn2cncc12)c1cc2cccc(C(F)(F)F)c2c(=O)n1-c1ccccc1 | > 10 | – | > 10 | > 10
C[C@H](Nc1nc(N)nc2cccnc12)c1cc2cccc(N(C)C)c2c(=O)n1-c1ccccc1 | > 10 | – | 0.1 to 1 | > 10
C[C@H](Nc1ncc2[nH]cnc2n1)c1cc2cccc(Cl)c2c(=O)n1-c1ccccc1 | > 10 | – | > 10 | > 10
COc1ncc(-c2cccc3cc([C@H](C)Nc4ccnc5ccnn45)n(-c4ccccc4)c(=O)c23)cn1 | > 10 | < 0.1 | 0.1 to 1 | > 10
C[C@H](Nc1ncnn2cncc12)c1cc2cccc(Cl)c2c(=O)n1-c1cccc(F)c1 | > 10 | – | > 10 | > 10
Cc1ncc(-c2cccc3cc([C@H](C)Nc4ncnc5cccnc45)n(-c4ccccc4)c(=O)c23)cn1 | > 10 | < 0.1 | < 0.1 | > 10
CNc1nc(N[C@@H](C)c2cc3cccc(NC)c3c(=O)n2-c2ccccc2)c2ncccc2n1 | > 10 | 0.1 to 1 | < 0.1 | > 10
C[C@H](Nc1ncnc2scnc12)c1cc2cccc(C(F)(F)F)c2c(=O)n1-c1ccccc1 | < 0.1 | < 0.1 | < 0.1 | 0.1 to 1
C[C@H](Nc1nc(N)nc2cccnc12)c1cc2cccc(Cl)c2c(=O)n1-c1ccc(F)cc1 | < 0.1 | < 0.1 | < 0.1 | 0.1 to 1
C[C@H](Nc1c(C#N)cnc2cccnc12)c1cc2cccc(Cl)c2c(=O)n1-c1cccc(F)c1 | > 10 | > 10 | – | > 10
C[C@H](Nc1ncnc2[nH]cc(C#N)c12)c1cc2cccc(C(F)(F)F)c2c(=O)n1-c1ccccc1 | 0.1 to 1 | < 0.1 | < 0.1 | > 10
COc1nc(N[C@@H](C)c2cc3cccc(C(F)(F)F)c3c(=O)n2-c2cccc(F)c2)c2ncccc2n1 | > 10 | > 10 | – | > 10
Cc1cn2nccc(N[C@@H](C)c3cc4cccc(C(F)(F)F)c4c(=O)n3-c3ccccc3)c2n1 | > 10 | > 10 | – | > 10
C[C@H](Nc1ncnc2cccnc12)c1cc2scc(-c3cnn(C)c3)c2c(=O)n1-c1ccccc1 | > 10 | – | < 0.1 | > 10
C[C@H](Nc1nc(Cl)nc2cccnc12)c1cc2cccc(-c3cnn(C)c3)c2c(=O)n1C1CC1 | > 10 | 0.1 to 1 | 0.1 to 1 | > 10
C[C@H](Nc1nc(N)nc2cccnc12)c1cc2cccc(Cl)c2c(=O)n1-c1ccccc1 | < 0.1 | < 0.1 | < 0.1 | 0.1 to 1
C[C@H](Nc1ncnc2cccnc12)c1cc2c(F)ccc(Cl)c2c(=O)n1-c1ccccc1 | 0.1 to 1 | – | < 0.1 | 0.1 to 1
COc1ncc(-c2cccc3cc([C@H](C)Nc4nc(O)nc5cccnc45)n(-c4ccccc4)c(=O)c23)cn1 | > 10 | > 10 | > 10 | > 10
C[C@H](Nc1nc(N)nc2[nH]cnc12)c1cc2cccc(C(F)(F)F)c2c(=O)n1-c1ccccc1 | < 0.1 | < 0.1 | < 0.1 | 0.1 to 1
C[C@H](Nc1cc(N)ncc1C(N)=O)c1cc2cccc(Cl)c2c(=O)n1-c1ccccc1 | < 0.1 | < 0.1 | < 0.1 | 0.1 to 1
COc1ncc(-c2cccc3cc([C@H](C)Nc4cc(N)nc5ccnn45)n(-c4ccccc4)c(=O)c23)cn1 | > 10 | < 0.1 | 0.1 to 1 | > 10
C[C@H](Nc1ncnc2cnccc12)c1cc2cccc(Cl)c2c(=O)n1-c1ccccc1 | > 10 | > 10 | > 10 | > 10
COc1ncc(-c2cccc3cc([C@H](C)Nc4nc(N)nc5cccnc45)n(-c4ccccc4)c(=O)c23)cn1 | > 10 | < 0.1 | < 0.1 | > 10
C[C@H](Nc1ncnc(N)c1C#N)c1cc2cccc(C(F)(F)F)c2c(=O)n1-c1ccccc1 | > 10 | < 0.1 | < 0.1 | > 10
C[C@H](Nc1ncnc2cc(F)ccc12)c1cc2cccc(Cl)c2c(=O)n1-c1ccccc1 | > 10 | > 10 | > 10 | > 10

SMILES | IC50 [1] [µM] | IC50 [2] [µM] | IC50 [3] [µM] | IC50 [4] [µM]
C[C@H](Nc1nc(Cl)nc2cccnc12)c1cc2cccc(-c3cnn(C)c3)c2c(=O)n1-c1ccccc1 | > 10 | 0.1 to 1 | < 0.1 | > 10
COc1nc(N[C@@H](C)c2cc3cccc(Cl)c3c(=O)n2-c2ccccc2)c2ncccc2n1 | > 10 | > 10 | > 10 | > 10
COc1cncc(-c2cccc3cc([C@H](C)Nc4ncnc5cccnc45)n(-c4ccccc4)c(=O)c23)c1 | > 10 | < 0.1 | < 0.1 | 0.1 to 1
C[C@H](Nc1ncnc2cc(F)c(F)cc12)c1cc2cccc(Cl)c2c(=O)n1-c1ccccc1 | > 10 | > 10 | > 10 | > 10
C[C@H](NCc1cnc2cccnn12)c1cc2cccc(Cl)c2c(=O)n1-c1ccccc1 | > 10 | – | > 10 | > 10
C[C@H](Nc1nc(O)nc2[nH]cnc12)c1cc2cccc(C(F)(F)F)c2c(=O)n1-c1cccc(F)c1 | > 10 | > 10 | > 10 | > 10
Cc1ccnc2cc(C(C)Nc3ncnc4cccnc34)[nH]c(=O)c12 (stereo not drawn) | > 10 | – | > 10 | > 10
C[C@H](Nc1c(C#N)cnc2cccnc12)c1cc2cccc(-c3cnn(C)c3)c2c(=O)n1-c1ccccc1 | > 10 | > 10 | – | > 10
C[C@H](Nc1nc(N)nc2cccnc12)c1nc2cccc(Cl)c2c(=O)n1-c1ccccc1 | 0.1 to 1 | < 0.1 | < 0.1 | 0.1 to 1
CNc1cccc2cc([C@H](C)Nc3nc(N)nc4cccnc34)n(-c3ccccc3)c(=O)c12 | > 10 | 0.1 to 1 | < 0.1 | > 10
C[C@H](Nc1cc(Cl)nn2ccnc12)c1cc2cccc(-c3cnn(C)c3)c2c(=O)n1-c1cccc(F)c1 | > 10 | 0.1 to 1 | 0.1 to 1 | > 10
C[C@H](Nc1ncnc2cccnc12)c1cc2cccc(Cl)c2c(=O)n1CCN1CCCC1 | 0.1 to 1 | < 0.1 | 0.1 to 1 | > 10
C[C@H](Nc1nc(Cl)nc2cccnc12)c1cc2cccc(C(F)(F)F)c2c(=O)n1-c1ccccc1 | > 10 | – | 0.1 to 1 | > 10
CCOC(=O)c1cnc(N[C@@H](C)c2cc3cccc(-c4ccnc(OC)c4)c3c(=O)n2-c2ccccc2)nc1N | > 10 | > 10 | > 10 | > 10
C[C@H](Nc1ccn2nccc2n1)c1cc2cccc(Cl)c2c(=O)n1-c1ccccc1 | > 10 | > 10 | > 10 | > 10
C[C@H](Nc1nccc2nccn12)c1cc2cccc(Cl)c2c(=O)n1-c1ccccc1 | > 10 | > 10 | > 10 | > 10
C[C@H](Nc1ncnc2cccnc12)c1cc2cccc(C(=O)O)c2c(=O)n1-c1ccccc1 | > 10 | > 10 | 0.1 to 1 | > 10
C[C@H](Nc1nc(Cl)nc2cccnc12)c1cc2cccc(-c3cnn(C)c3)c2c(=O)n1-c1cccc(F)c1 | > 10 | 0.1 to 1 | 0.1 to 1 | > 10
COc1ncc(-c2cccc3cc([C@H](C)Nc4ncnc5cccnc45)n(-c4ccccc4)c(=O)c23)cn1 | > 10 | < 0.1 | < 0.1 | > 10
C[C@H](Nc1nc(Cl)nc2nc(Cl)cnc12)c1cc2cccc(Cl)c2c(=O)n1-c1ccccc1 | > 10 | – | > 10 | > 10
Cc1nc2c(N[C@@H](C)c3cc4cccc(C(F)(F)F)c4c(=O)n3-c3ccccc3)ncnc2s1 | > 10 | > 10 | – | > 10
C[C@H](Nc1c(C#N)cnc2cccnc12)c1cc2cccc(Cl)c2c(=O)n1-c1ccccc1 | > 10 | > 10 | – | > 10
C[C@H](Nc1ncnc(N)n1)c1cc2cccc(Cl)c2c(=O)n1-c1cccc(F)c1 | > 10 | 0.1 to 1 | – | > 10
C[C@H](Nc1nc(Cl)nc2cccnc12)c1cc2cccc(Cl)c2c(=O)n1-c1ccccc1 | > 10 | – | < 0.1 | > 10
C[C@H](Nc1ncnc2cccnc12)c1cc2scc(C(F)(F)F)c2c(=O)n1-c1ccccc1 | > 10 | < 0.1 | – | > 10
COc1ncc(-c2cccc3cc([C@H](C)Nc4cc(O)nc5cccnc45)n(-c4ccccc4)c(=O)c23)cn1 | > 10 | – | > 10 | > 10
C[C@H](Nc1c(C#N)cnc2cccnc12)c1cc2cccc(C(F)(F)F)c2c(=O)n1-c1ccccc1 | > 10 | > 10 | – | > 10
